According to US20240174670A1, “4-AMINO-6-OXO-PYRIDAZINE DERIVATIVES MODULATING NLRP3” (JANSSEN PHARMACEUTICA NV, priority 2021, published 2024):

Legend:
IL-1β = assay: PBMC assay, IL-1β release after LPS stimulation; format: cell-based; settings: human PBMCs, 30 min preincubation, 100 ng/ml LPS for 6 hrs, supernatant, MSD technology, read-out: IL1β AC50
Description: The activity of a compound according to the present invention can be assessed by in vitro methods.
(§1) Peripheral venous blood was collected from healthy individuals and human peripheral blood mononuclear cells (PBMCs) were isolated from blood by Ficoll-Histopaque (Sigma-Aldrich, A0561) density gradient centrifugation. After isolation, PBMCs were stored in liquid nitrogen for later use. Upon thawing, PBMC cell viability was determined in growth medium (RPMI media supplemented with 10% fetal bovine serum, 1% Pen-Strep and 1% L-glutamine). Compounds were spotted in a 1:3 serial dilution in DMSO and diluted to the final concentration in 30 μl medium in 96 well plates (Falcon, 353072). PBMCs were added at a density of 7.5×10^4 cells per well and incubated for 30 min in a 5% CO2 incubator at 37 ° C. LPS stimulation was performed by addition of 100 ng/ml LPS (final concentration, Invivogen, tlrl-smlps) for 6 hrs followed by collection of cellular supernatant and the analysis of IL-1β[…] and TNF cytokines levels (uμ) via MSD technology according to manufacturers' guidelines (MSD, K151A0H).
(§2) IC50 and AC50 values (for IL-1β) and EC50 and AC50 values (TNF) were obtained on compounds of the invention/examples, and the AC50 values are depicted in the following table: […]

TNF = assay: PBMC assay, TNF release after LPS stimulation; format: cell-based; settings: human PBMCs, 30 min preincubation, 100 ng/ml LPS for 6 hrs, supernatant, MSD technology
Description: as §1, §2

Row | Compound | AC50 (IL-1β) [µM] | AC50 (TNF) [µM]
1 | CC(C)c1nn(CC(=O)Nc2ccc3nncn3c2)c(=O)cc1N1CCC[C@H]1CO (single isomer, unassigned) [Compound 11] | > 15 | > 10
2 | CC(C)c1nn(CC(=O)Nc2ccc3nncn3c2)c(=O)cc1Nc1ccccc1 [Compound 1, 2-(4-anilino-3-isopropyl-6-oxo-pyridazin-1-yl)-N-([1,2,4]triazolo[4,3-a]pyridin-6-yl)acetamide] | > 15 | > 10
3 | CC(C)c1nn(CC(=O)Nc2ccc3nncn3c2)c(=O)cc1Nc1cnn(CC23CC(CO2)C3)c1 [Compound 2] | > 15 | > 10
4 | CC(C)c1nn(CC(=O)Nc2ccc3nncn3c2)c(=O)cc1Nc1cnn(CC23CC(CO2)C3)c1C(F)(F)F [Compound 3] | > 15 | > 10
5 | CC(C)c1nn(CC(=O)Nc2ccc3nncn3c2)c(=O)cc1NCC(F)(F)F [Compound 4] | > 15 | > 10
6 | CC(C)c1nn(CC(=O)Nc2ccc3nncn3c2)c(=O)cc1N1CCCC1 [Compound 5, 2-(3-isopropyl-6-oxo-4-pyrrolidin-1-yl-pyridazin-1-yl)-N-([1,2,4]triazolo[4,3-a]pyridin-6-yl)acetamide] | 0.33 | > 10
7 | CC(C)c1nn(CC(=O)Nc2ccc3nncn3c2)c(=O)cc1N1CCOCC1 [Compound 6] | > 15 | > 10
8 | CC(C)c1nn(CC(=O)Nc2ccc3nncn3c2)c(=O)cc1NC1CCCC1 [Compound 7] | 4.36 | > 10
9 | COC[C@@H]1CCCN1c1cc(=O)n(CC(=O)Nc2ccc3nncn3c2)nc1C(C)C [Compound 8] | 5.81 | > 10
10 | CC(C)c1nn(CC(=O)Nc2ccc3nncn3c2)c(=O)cc1N1CC[C@H](F)C1 [Compound 9] | 2.49 | > 10
11 | CC(C)c1nn(CC(=O)Nc2ccc3nncn3c2)c(=O)cc1N1CC[C@@H](F)C1 [Compound 10] | 0.53 | > 10
12 | CC(C)c1nn(CC(=O)Nc2ccc3nncn3c2)c(=O)cc1N1CCC(F)(F)CC1 [Compound 12] | > 15 | > 10
13 | CC(C)c1nn(CC(=O)Nc2ccc3nncn3c2)c(=O)cc1N1CCC(F)(F)C1 [Compound 13] | 0.66 | > 10
14 | CC(C)c1nn(CC(=O)Nc2ccc3nncn3c2)c(=O)cc1N1CC2CC2C1 (centres unmarked) [Compound 14] | 0.09 | > 10
15 | COC[C@H]1CCCN1c1cc(=O)n(CC(=O)Nc2ccc3nncn3c2)nc1C(C)C [Compound 15] | 16.6 | > 10
16 | CO[C@H]1CCN(c2cc(=O)n(CC(=O)Nc3ccc4nncn4c3)nc2C(C)C)C1 [Compound 16] | 11.4 | > 10
17 | CO[C@@H]1CCN(c2cc(=O)n(CC(=O)Nc3ccc4nncn4c3)nc2C(C)C)C1 [Compound 17] | 2.9 | > 10
18 | CC(C)c1nn(CC(=O)Nc2ccc3nncn3c2)c(=O)cc1N1CCC[C@@H]1C [Compound 18] | > 15 | > 10
19 | CCC1CCCN1c1cc(=O)n(CC(=O)Nc2ccc3nncn3c2)nc1C(C)C (centres unmarked) [Compound 19] | 2.61 | > 10
20 | CC(C)c1nn(CC(=O)Nc2ccc3nncn3c2)c(=O)cc1N1CCCC1C(C)C (centres unmarked) [Compound 20] | 10.8 | > 10

Row | Compound | AC50 (IL-1β) [µM] | AC50 (TNF) [µM]
21 | CC(C)c1nn(CC(=O)Nc2ccc3nncn3c2)c(=O)cc1N1C2CCC1CC2 [Compound 21] | 1.02 | > 10
22 | CC1CN(c2cc(=O)n(CC(=O)Nc3ccc4nncn4c3)nc2C(C)C)C1 [Compound 23] | 0.71 | > 10
23 | COC1CN(c2cc(=O)n(CC(=O)Nc3ccc4nncn4c3)nc2C(C)C)C1 [Compound 24] | 9.87 | > 10
24 | CC(C)c1nn(CC(=O)Nc2ccc3nncn3c2)c(=O)cc1N1CCC12CCOCC2 [Compound 25] | > 15 | > 10
25 | CC(C)c1nn(CC(=O)Nc2ccc3nncn3c2)c(=O)cc1N1CC(C)(O)C1 [Compound 26] | > 15 | > 10
26 | CC(C)c1nn(CC(=O)Nc2ccc3nncn3c2)c(=O)cc1N1CC[C@@H](N(C)C)C1 [Compound 27] | > 15 | > 10
27 | CC(C)c1nn(CC(=O)Nc2ccc3nncn3c2)c(=O)cc1N1CC[C@H](N(C)C)C1 [Compound 28] | > 15 | > 10
28 | CC(C)c1nn(CC(=O)Nc2ccc3nncn3c2)c(=O)cc1NCC1CC1 [Compound 29, 2-[4-(cyclopropylmethylamino)-3-isopropyl-6-oxo-pyridazin-1-yl]-N-([1,2,4]triazolo[4,3-a]pyridin-6-yl)acetamide] | 1.53 | > 10
29 | CC(C)c1nn(CC(=O)Nc2ccc3nncn3c2)c(=O)cc1N(C)C [Compound 30, 2-[4-(dimethylamino)-3-isopropyl-6-oxo-pyridazin-1-yl]-N-([1,2,4]triazolo[4,3-a]pyridin-6-yl)acetamide] | > 15 | > 10
30 | CC(C)c1nn(CC(=O)Nc2ccc3nncn3c2)c(=O)cc1NC1CC(C)(C)C1 [Compound 31, N-([1,2,4]triazolo[4,3-a]pyridin-6-yl)-2-(4-((3,3-dimethylcyclobutyl)amino)-3-isopropyl-6-oxopyridazin-1(6H)-yl)acetamide] | > 20 | > 20
31 | CC(C)c1nn(CC(=O)Nc2ccc3nncn3c2)c(=O)cc1N1CC(C)(F)C1 [Compound 32] | 1.37 | > 20
32 | CC(C)c1nn(CC(=O)Nc2ccc3nncn3c2)c(=O)cc1N1CC[C@@H]2C[C@@H]2C1 [Compound 33] | 0.5 | > 20
33 | CC(C)c1nn(CC(=O)Nc2ccc3nncn3c2)c(=O)cc1N1Cc2cc(F)cnc2C1 [Compound 34] | > 20 | > 20
34 | CC(C)c1nn(CC(=O)Nc2ccc3nncn3c2)c(=O)cc1N1CC(CC(F)F)C1 [Compound 35] | 4.36 | > 20
35 | CC(C)c1nn(CC(=O)Nc2ccc3nncn3c2)c(=O)cc1N1CCC(C)(O)CC1 [Compound 36] | > 20 | > 20
36 | CC(C)c1nn(CC(=O)Nc2ccc3nncn3c2)c(=O)cc1NCC(F)c1ccccc1 (centres unmarked) [Compound 37] | > 20 | > 20
37 | CC(C)c1nn(CC(=O)Nc2ccc3nncn3c2)c(=O)cc1Nc1cccc(C2CC2)n1 [Compound 38, N-([1,2,4]triazolo[4,3-a]pyridin-6-yl)-2-(4-((6-cyclopropylpyridin-2-yl)amino)-3-isopropyl-6-oxopyridazin-1(6H)-yl)acetamide] | > 4 | > 4
38 | CC(C)c1nn(CC(=O)Nc2ccc3nncn3c2)c(=O)cc1Nc1cnc(C2CC2)nc1 [Compound 39] | > 6.67 | > 6.67
39 | CC(C)c1nn(CC(=O)Nc2ccc3nncn3c2)c(=O)cc1NC(C)C1CC1(F)F (centres unmarked) [Compound 40, N-([1,2,4]triazolo[4,3-a]pyridin-6-yl)-2-(4-((1-(2,2-difluorocyclopropyl)ethyl)amino)-3-isopropyl-6-oxopyridazin-1(6H)-yl)acetamide] | > 20 | > 20
40 | CC(C)c1nn(CC(=O)Nc2ccc3nncn3c2)c(=O)cc1Nc1ccc2oncc2c1 [Compound 41, N-([1,2,4]triazolo[4,3-a]pyridin-6-yl)-2-(4-(benzo[d]isoxazol-5-ylamino)-3-isopropyl-6-oxopyridazin-1(6H)-yl)acetamide] | > 20 | > 20
